From patent publication EP4667007A2, “NOVEL ASSOCIATION OF GASTRODIA ELATA AND VITAMIN B” (Futura S.r.l., priority 2024, dated 2025)
Where two headings read alike, the source gives them in different places.

Key:
Caco-2 cells [1] = experiment: In vitro intestinal barrier model, absorption with fluorescent tracer (Transwell)
Caco-2 cells [2] = settings: human
neuregulin 1 (NRG1) = experiment: 3D EngNT under PNI conditions, NRG1 ELISA; format: cell-based, rat; settings: GGF 200 ng/mL, result in words
Experimental: To replicate a strong demyelination before stimulation with the two formulations and the single drugs, the 3D EngNT was pre-treated with 200 ng/mL glial growth factor 2 (GGF) starting on day 14 of maturation. This was necessary since the study needed to replicate the peripheral nerve tissue damage in vitro. Therefore, further studies were conducted to investigate the effects on cell viability and ROS production (Figures 5A-B). […] In contrast, both the individual components and formulations were able not only to re-establish physiological conditions, but also to induce a significant increase in cell viability and a decrease in ROS production (p<0.05). […]
This study was carried out in three different phases; the starting point of the study protocol was intended to study the absorption and transport processes of the novel formulation and individual components through the intestinal barrier using a 3D in vitro model with Caco-2 cells. […] Finally, in the third phase, peripheral nerve damage and demyelination were simulated in vitro, treating 3D EngNT with GGF 200ng/ml, to explore cell survival and mitochondrial activity, oxidative stress and ROS quantification, the inflammatory processes involved in neuropathy, nociceptive pathways for pain control, and the main pathways involved in the processes of myelin sheath protection and neurite formation. […]

CC(=O)O[C@H](CC(=O)[O-])C[N+](C)(C)C [Acetyl-L-Carnitine, (R)-3-acetyloxy-4-trimethylammonium-butanoate]
Absorption Rate (Caco-2 cells [1]; 2h, Gastrodin 25µM, Citicoline 250mM, Acetyl-L-Carnitine 7.5µM, Vit. B group 1mg/mL, Lipoic Acid 50µM): 69.49% | Absorption Rate (Caco-2 cells [1]; 3h, same concentrations): 77.35% | Absorption Rate (Caco-2 cells [1]; 4h, same concentrations): 80.65% | Absorption Rate (Caco-2 cells [1]; 5h, same concentrations): 69.90% | Absorption Rate (Caco-2 cells [1]; 6h, same concentrations): 54.16%

O=C(O)CCCCC1CCSS1 (stereo not shown) [Lipoic acid]
Absorption Rate (Caco-2 cells [2]; 3 h): 49.27% | Absorption Rate (Caco-2 cells [2]; 4 h): 53.77% | Absorption Rate (Caco-2 cells [2]; 5 h): 51.71% | Absorption Rate (Caco-2 cells [2]; 6 h): 41.36% | NRG1 activity (neuregulin 1 (NRG1)): not able to improve it compared to GGF 200ng/mL
